Measured values published in ChEMBL document CHEMBL1136402, “Characterization of HERG potassium channel inhibition using CoMSiA 3D QSAR and homology modeling approaches” (Bioorg Med Chem Lett, 2003).

Molecular target: Voltage-gated inwardly rectifying potassium channel KCNH2 (Homo sapiens, UniProt Q12809)
Test: Inhibition of K+ channel activity in CHO cells expressing HERG Kv11.1

Voltage-gated inwardly rectifying potassium channel KCNH2, sequence (Q12809 whole entry): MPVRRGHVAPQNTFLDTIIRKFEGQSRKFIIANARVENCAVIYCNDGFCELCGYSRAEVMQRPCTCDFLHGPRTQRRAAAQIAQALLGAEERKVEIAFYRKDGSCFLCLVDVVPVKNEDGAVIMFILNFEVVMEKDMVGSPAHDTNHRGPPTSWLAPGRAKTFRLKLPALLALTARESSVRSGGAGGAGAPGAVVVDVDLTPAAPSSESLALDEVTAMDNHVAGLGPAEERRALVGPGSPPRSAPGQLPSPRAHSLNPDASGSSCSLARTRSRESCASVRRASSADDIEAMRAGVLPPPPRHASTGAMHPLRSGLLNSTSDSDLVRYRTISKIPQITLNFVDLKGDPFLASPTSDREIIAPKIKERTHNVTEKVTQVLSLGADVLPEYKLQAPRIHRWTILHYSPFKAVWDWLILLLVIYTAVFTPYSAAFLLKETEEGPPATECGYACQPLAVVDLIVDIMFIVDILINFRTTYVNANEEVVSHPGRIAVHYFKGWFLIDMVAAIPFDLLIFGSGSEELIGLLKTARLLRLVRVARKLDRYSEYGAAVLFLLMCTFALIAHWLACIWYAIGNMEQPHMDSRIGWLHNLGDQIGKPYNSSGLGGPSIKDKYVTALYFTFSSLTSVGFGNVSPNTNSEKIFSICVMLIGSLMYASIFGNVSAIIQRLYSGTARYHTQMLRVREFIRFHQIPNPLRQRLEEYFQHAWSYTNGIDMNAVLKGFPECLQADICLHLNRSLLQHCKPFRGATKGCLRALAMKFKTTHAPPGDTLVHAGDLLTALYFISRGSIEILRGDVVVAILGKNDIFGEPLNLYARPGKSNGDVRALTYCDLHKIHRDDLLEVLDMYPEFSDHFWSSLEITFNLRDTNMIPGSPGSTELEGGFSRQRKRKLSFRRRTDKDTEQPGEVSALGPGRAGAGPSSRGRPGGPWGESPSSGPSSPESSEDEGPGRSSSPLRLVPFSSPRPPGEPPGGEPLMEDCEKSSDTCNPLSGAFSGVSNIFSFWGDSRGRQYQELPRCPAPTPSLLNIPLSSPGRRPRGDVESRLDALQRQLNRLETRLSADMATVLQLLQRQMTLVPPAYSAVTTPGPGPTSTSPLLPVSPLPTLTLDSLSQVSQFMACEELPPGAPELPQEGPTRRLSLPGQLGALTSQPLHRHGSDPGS

Structure (SMILES) | IC50 [µM]
O=C1NCCN1CCN1CC=C(c2cn(-c3ccc(F)cc3)c3ccc(Cl)cc23)CC1 | 0.01
O=C1NCCN1CCN1CCC(c2cn(-c3ccc(F)cc3)c3ccccc23)CC1 | 0.007
Fc1ccc(-n2cc(C3CCNCC3)c3cc(Cl)ccc32)cc1 | 0.204
Fc1ccc(-n2cc(C3CCN(CCN4CCN=C4S)CC3)c3ccccc32)cc1 | 0.0062
CC(C)(C)c1ccc2c(ccn2-c2ccc(F)cc2)c1 | > 10
CCc1cn(-c2ccc(F)cc2)c2ccc(Cl)cc12 | 3.5
CC(=O)c1cn(-c2ccc(F)cc2)c2ccc(Cl)cc12 | > 10
CCCc1cn(-c2ccc(F)cc2)c2ccc(Cl)cc12 | 26
CC(O)c1cn(-c2ccc(F)cc2)c2ccc(Cl)cc12 (stereo not given) | 4.55
CC(C)c1cn(-c2ccc(F)cc2)c2ccc(Cl)cc12 | > 10
CCC(=O)c1cn(-c2ccc(F)cc2)c2ccc(Cl)cc12 | 1.95
O=C1NCCN1CCN1CCC(c2cn(C3CCCCC3)c3ccc(Cl)cc23)CC1 | 0.137
CCC(O)c1cn(-c2ccc(F)cc2)c2ccc(Cl)cc12 (stereo not given) | 2.2
CCC(O)(CC)c1cn(-c2ccc(F)cc2)c2ccc(Cl)cc12 | 15.7
O=C1NCCN1CCN1CCC(C2CN(c3ccc(F)cc3)c3ccccc32)CC1 (stereo not given) | 0.0235
